Values quoted from earlier work in article PMC8146789, “20-Hydroxyecdysone, from Plant Extracts to Clinical Use: Therapeutic Potential for the Treatment of Neuromuscular, Cardio-Metabolic and Respiratory Diseases” (Biomedicines, 2021).
Where two headings read alike, the source gives them in different places.

What was measured:
[1] = design: method as in Wu et al. [124]; conditions: mice, ref Wu et al. [124], cited from earlier work
[2] = design: method as in PMID 21439380, PMID 33819630; conditions: mice, oral; ref [126],[127]; cited from earlier work
[3] = design: method as in doi:10.1007/BF02234932; conditions: 15 mg/day, 10 days; ref [166]; cited from earlier work
Giardiasis = system: Giardiasis; design: method as in PMID 12224262; conditions: 5 mg 3× or 4×/day, 10 days; ref [167]; cited from earlier work
Lambliasis = system: Lambliasis; design: method as in PMID 20614521; conditions: 5 mg 4×/day, 10 days; ref [168]; cited from earlier work
[4] = design: method as in ref [177] = [177]; 177. Dustmukhamedova D.K.H. Kamilovz A.T. The characteristic of energy metabolism disorders and its correction in children with celiac disease Am. J. Med. Medic. Sci. 2020 10 780 783; conditions: children 3–14, 2.5 mg/kg/day, 14 days; ref [177]; cited from earlier work
[5] = design: method as in doi:10.1055/s-0032-1320426; conditions: ovariectomized rats, p < 0.05; ref [171],[172]; cited from earlier work

CC(C)(O)CC[C@@H](O)[C@](C)(O)[C@H]1CC[C@@]2(O)C3=CC(=O)[C@@H]4C[C@@H](O)[C@@H](O)C[C@]4(C)[C@H]3CC[C@]12C [20E, 2β,3β,14α,20R,22R,25-hexahydroxy-5β-cholest-7-en-6-one]
quantitative distribution, Adrenals ([1]; 5 min): 0.184 µg/g
quantitative distribution, Bile ([1]; 5 min): 0.421 µg/g
quantitative distribution, Bladder ([1]; 5 min): 0.013 µg/g
quantitative distribution, Blood plasma ([1]; 5 min): 0.061 µg/g
quantitative distribution, Brain ([1]; 5 min): 0.013 µg/g
quantitative distribution, Feces ([1]; 5 min): 0.015 µg/g
quantitative distribution, Heart ([1]; 5 min): 0.062 µg/g
quantitative distribution, Kidney ([1]; 5 min): 0.137 µg/g
quantitative distribution, Large intestine ([1]; 5 min): 0.011 µg/g
quantitative distribution, Liver ([1]; 5 min): 0.312 µg/g
quantitative distribution, Lungs ([1]; 5 min): 0.116 µg/g
quantitative distribution, Skeletal muscle ([1]; 5 min): 0.021 µg/g
quantitative distribution, Small intestine ([1]; 5 min): 0.254 µg/g
quantitative distribution, Spinal cord ([1]; 5 min): 0.019 µg/g
quantitative distribution, Spleen ([1]; 5 min): 0.041 µg/g
quantitative distribution, Stomach ([1]; 5 min): 0.034 µg/g
quantitative distribution, Testis ([1]; 5 min): 0.048 µg/g
quantitative distribution, Urine ([1]; 5 min): 0.482 µg/g
quantitative distribution, Adrenals ([1]; 10 min): 0.139 µg/g
quantitative distribution, Bile ([1]; 10 min): 0.456 µg/g
quantitative distribution, Bladder ([1]; 10 min): 0.024 µg/g
quantitative distribution, Blood plasma ([1]; 10 min): 0.057 µg/g
quantitative distribution, Brain ([1]; 10 min): 0.014 µg/g
quantitative distribution, Feces ([1]; 10 min): 0.019 µg/g
quantitative distribution, Heart ([1]; 10 min): 0.052 µg/g
quantitative distribution, Kidney ([1]; 10 min): 0.123 µg/g
quantitative distribution, Large intestine ([1]; 10 min): 0.023 µg/g
quantitative distribution, Liver ([1]; 10 min): 0.251 µg/g
quantitative distribution, Lungs ([1]; 10 min): 0.069 µg/g
quantitative distribution, Skeletal muscle ([1]; 10 min): 0.023 µg/g
quantitative distribution, Small intestine ([1]; 10 min): 0.139 µg/g
quantitative distribution, Spinal cord ([1]; 10 min): 0.028 µg/g
quantitative distribution, Spleen ([1]; 10 min): 0.026 µg/g
quantitative distribution, Stomach ([1]; 10 min): 0.047 µg/g
quantitative distribution, Testis ([1]; 10 min): 0.036 µg/g
quantitative distribution, Urine ([1]; 10 min): 0.921 µg/g
quantitative distribution, Adrenals ([1]; 30 min): 0.098 µg/g
quantitative distribution, Bile ([1]; 30 min): 1.042 µg/g
quantitative distribution, Bladder ([1]; 30 min): 0.038 µg/g
quantitative distribution, Blood plasma ([1]; 30 min): 0.052 µg/g
quantitative distribution, Brain ([1]; 30 min): 0.015 µg/g
quantitative distribution, Feces ([1]; 30 min): 0.035 µg/g
quantitative distribution, Heart ([1]; 30 min): 0.035 µg/g
quantitative distribution, Kidney ([1]; 30 min): 0.098 µg/g
quantitative distribution, Large intestine ([1]; 30 min): 0.029 µg/g
quantitative distribution, Liver ([1]; 30 min): 0.213 µg/g
quantitative distribution, Lungs ([1]; 30 min): 0.057 µg/g
quantitative distribution, Skeletal muscle ([1]; 30 min): 0.028 µg/g
quantitative distribution, Small intestine ([1]; 30 min): 0.094 µg/g
quantitative distribution, Spinal cord ([1]; 30 min): 0.067 µg/g
quantitative distribution, Spleen ([1]; 30 min): 0.024 µg/g
quantitative distribution, Stomach ([1]; 30 min): 0.075 µg/g
quantitative distribution, Testis ([1]; 30 min): 0.029 µg/g
quantitative distribution, Urine ([1]; 30 min): 1.534 µg/g
quantitative distribution, Adrenals ([1]; 1 h): 0.081 µg/g
quantitative distribution, Bile ([1]; 1 h): 0.901 µg/g
quantitative distribution, Bladder ([1]; 1 h): 0.026 µg/g
quantitative distribution, Blood plasma ([1]; 1 h): 0.047 µg/g
quantitative distribution, Brain ([1]; 1 h): 0.013 µg/g
quantitative distribution, Feces ([1]; 1 h): 0.068 µg/g
quantitative distribution, Heart ([1]; 1 h): 0.033 µg/g
quantitative distribution, Kidney ([1]; 1 h): 0.071 µg/g
quantitative distribution, Large intestine ([1]; 1 h): 0.031 µg/g
quantitative distribution, Liver ([1]; 1 h): 0.112 µg/g
quantitative distribution, Lungs ([1]; 1 h): 0.053 µg/g
quantitative distribution, Skeletal muscle ([1]; 1 h): 0.017 µg/g
quantitative distribution, Small intestine ([1]; 1 h): 0.083 µg/g
quantitative distribution, Spinal cord ([1]; 1 h): 0.041 µg/g
quantitative distribution, Spleen ([1]; 1 h): 0.018 µg/g
quantitative distribution, Stomach ([1]; 1 h): 0.061 µg/g
quantitative distribution, Testis ([1]; 1 h): 0.026 µg/g
quantitative distribution, Urine ([1]; 1 h): 0.281 µg/g
quantitative distribution, Adrenals ([1]; 3 h): 0.073 µg/g
quantitative distribution, Bile ([1]; 3 h): 0.301 µg/g
quantitative distribution, Bladder ([1]; 3 h): 0.023 µg/g
quantitative distribution, Blood plasma ([1]; 3 h): 0.032 µg/g
quantitative distribution, Brain ([1]; 3 h): 0.012 µg/g
quantitative distribution, Feces ([1]; 3 h): 0.099 µg/g
quantitative distribution, Heart ([1]; 3 h): 0.031 µg/g
quantitative distribution, Kidney ([1]; 3 h): 0.055 µg/g
quantitative distribution, Large intestine ([1]; 3 h): 0.035 µg/g
quantitative distribution, Liver ([1]; 3 h): 0.078 µg/g
quantitative distribution, Lungs ([1]; 3 h): 0.049 µg/g
quantitative distribution, Skeletal muscle ([1]; 3 h): 0.015 µg/g
quantitative distribution, Small intestine ([1]; 3 h): 0.076 µg/g
quantitative distribution, Spinal cord ([1]; 3 h): 0.033 µg/g
quantitative distribution, Spleen ([1]; 3 h): 0.023 µg/g
quantitative distribution, Stomach ([1]; 3 h): 0.053 µg/g
quantitative distribution, Testis ([1]; 3 h): 0.023 µg/g
quantitative distribution, Urine ([1]; 3 h): 0.102 µg/g
quantitative distribution, Adrenals ([1]; 6 h): 0.065 µg/g
quantitative distribution, Bile ([1]; 6 h): 0.209 µg/g
quantitative distribution, Bladder ([1]; 6 h): 0.018 µg/g
quantitative distribution, Blood plasma ([1]; 6 h): 0.023 µg/g
quantitative distribution, Brain ([1]; 6 h): 0.01 µg/g
quantitative distribution, Feces ([1]; 6 h): 0.931 µg/g
quantitative distribution, Heart ([1]; 6 h): 0.029 µg/g
quantitative distribution, Kidney ([1]; 6 h): 0.043 µg/g
quantitative distribution, Large intestine ([1]; 6 h): 0.048 µg/g
quantitative distribution, Liver ([1]; 6 h): 0.061 µg/g
quantitative distribution, Lungs ([1]; 6 h): 0.045 µg/g
quantitative distribution, Skeletal muscle ([1]; 6 h): 0.013 µg/g
quantitative distribution, Small intestine ([1]; 6 h): 0.061 µg/g
quantitative distribution, Spinal cord ([1]; 6 h): 0.024 µg/g
quantitative distribution, Spleen ([1]; 6 h): 0.027 µg/g
quantitative distribution, Stomach ([1]; 6 h): 0.041 µg/g
quantitative distribution, Testis ([1]; 6 h): 0.021 µg/g
quantitative distribution, Urine ([1]; 6 h): 0.096 µg/g
quantitative distribution, Adrenals ([1]; 12 h): 0.052 µg/g
quantitative distribution, Bile ([1]; 12 h): 0.198 µg/g
quantitative distribution, Bladder ([1]; 12 h): 0.015 µg/g
quantitative distribution, Blood plasma ([1]; 12 h): 0.015 µg/g
quantitative distribution, Brain ([1]; 12 h): 0.008 µg/g
quantitative distribution, Feces ([1]; 12 h): 0.312 µg/g
quantitative distribution, Heart ([1]; 12 h): 0.023 µg/g
quantitative distribution, Kidney ([1]; 12 h): 0.037 µg/g
quantitative distribution, Large intestine ([1]; 12 h): 0.038 µg/g
quantitative distribution, Liver ([1]; 12 h): 0.056 µg/g
quantitative distribution, Lungs ([1]; 12 h): 0.036 µg/g
quantitative distribution, Skeletal muscle ([1]; 12 h): 0.011 µg/g
quantitative distribution, Small intestine ([1]; 12 h): 0.05 µg/g
quantitative distribution, Spinal cord ([1]; 12 h): 0.020 µg/g
quantitative distribution, Spleen ([1]; 12 h): 0.032 µg/g
quantitative distribution, Stomach ([1]; 12 h): 0.032 µg/g
quantitative distribution, Testis ([1]; 12 h): 0.019 µg/g
quantitative distribution, Urine ([1]; 12 h): 0.087 µg/g
quantitative distribution, Adrenals ([1]; 24 h): 0.043 µg/g
quantitative distribution, Bile ([1]; 24 h): 0.094 µg/g
quantitative distribution, Bladder ([1]; 24 h): 0.013 µg/g
quantitative distribution, Blood plasma ([1]; 24 h): 0.011 µg/g
quantitative distribution, Brain ([1]; 24 h): 0.007 µg/g
quantitative distribution, Feces ([1]; 24 h): 0.041 µg/g
quantitative distribution, Heart ([1]; 24 h): 0.022 µg/g
quantitative distribution, Kidney ([1]; 24 h): 0.032 µg/g
quantitative distribution, Large intestine ([1]; 24 h): 0.023 µg/g
quantitative distribution, Liver ([1]; 24 h): 0.046 µg/g
quantitative distribution, Lungs ([1]; 24 h): 0.028 µg/g
quantitative distribution, Skeletal muscle ([1]; 24 h): 0.010 µg/g
quantitative distribution, Small intestine ([1]; 24 h): 0.033 µg/g
quantitative distribution, Spinal cord ([1]; 24 h): 0.018 µg/g
quantitative distribution, Spleen ([1]; 24 h): 0.027 µg/g
quantitative distribution, Stomach ([1]; 24 h): 0.023 µg/g
quantitative distribution, Testis ([1]; 24 h): 0.017 µg/g
quantitative distribution, Urine ([1]; 24 h): 0.046 µg/g
time at which 20E starts to reach the large intestine [2]: ca. 30 min
kidney function and microcirculation [3]: Improvement of kidney function and of microcirculation
patients with parasite elimination (Giardiasis): Parasite elimination in 68.7% of patients
parasite elimination (Lambliasis): Therapy eliminated most parasites within 10 days
output of celiac disease study [4]: Reduction in symptoms Improvement of energy metabolism
abdominal, bone marrow and joint fat [5]: reduced the amount of abdominal, bone marrow and joint fat
